From the NIST ThermoML archive (doi:10.1016/j.jct.2015.02.011)
± gives the expanded uncertainty stated by the source.

Assay: xn = mol fraction of the nth substance listed
Conditions: 100.7 kPa, Liquid; for speed of sound: Frequency=3 MHz, Sing-around technique in a fixed-path interferometer; for mass density: Vibrating tube method

CCCCCCn1cc[n+](C)c1.F[P-](F)(F)(F)(F)F [1-hexyl-3-methylimidazolium hexafluorophosphate] + C1CCOC1
Conditions | mass density [kg/m3] | speed of sound [m/s]
293.15 K, x1 = 0.1036 | 1001.33 ± 1.6 | 1328.7 ± 2.3
293.15 K, x1 = 0.2002 | 1074.85 ± 1.6 | 1349.2 ± 2.3
293.15 K, x1 = 0.2868 | 1123.69 ± 1.6 | 1366.6 ± 2.4
293.15 K, x1 = 0.4134 | 1175.92 ± 1.7 | 1385.4 ± 2.5
293.15 K, x1 = 0.5222 | 1209.22 ± 1.7 | 1398.2 ± 2.5
293.15 K, x1 = 0.6239 | 1233.91 ± 1.8 | 1408.8 ± 2.6
293.15 K, x1 = 0.6951 | 1248.83 ± 1.8 | 1414.7 ± 2.7
293.15 K, x1 = 0.7978 | 1267.15 ± 1.9 | 1423.7 ± 2.7
293.15 K, x1 = 0.8953 | 1282.62 ± 2 | 1430.4 ± 2.8
293.15 K, x1 = 1 | 1296.72 ± 2.1 | 1437.7 ± 2.9
298.15 K, x1 = 0.1036 | 996.523 ± 1.6 | 1308.8 ± 2.3
298.15 K, x1 = 0.2002 | 1070.1 ± 1.6 | 1330.9 ± 2.3
298.15 K, x1 = 0.2868 | 1119.03 ± 1.6 | 1348.8 ± 2.4
298.15 K, x1 = 0.4134 | 1171.43 ± 1.7 | 1370 ± 2.5
298.15 K, x1 = 0.5222 | 1204.92 ± 1.7 | 1383.3 ± 2.5
298.15 K, x1 = 0.6239 | 1229.78 ± 1.8 | 1394.6 ± 2.6
298.15 K, x1 = 0.6951 | 1244.72 ± 1.8 | 1400.1 ± 2.7
298.15 K, x1 = 0.7978 | 1263.02 ± 1.9 | 1409.8 ± 2.7
298.15 K, x1 = 0.8953 | 1278.55 ± 2 | 1417.1 ± 2.8
298.15 K, x1 = 1 | 1292.62 ± 2.1 | 1424.3 ± 2.9
303.15 K, x1 = 0.1036 | 991.33 ± 1.6 | 1287.5 ± 2.3
303.15 K, x1 = 0.2002 | 1065.16 ± 1.6 | 1311.7 ± 2.3
303.15 K, x1 = 0.2868 | 1114.11 ± 1.6 | 1331.2 ± 2.4
303.15 K, x1 = 0.4134 | 1166.92 ± 1.7 | 1352.9 ± 2.5
303.15 K, x1 = 0.5222 | 1200.49 ± 1.7 | 1367.7 ± 2.5
303.15 K, x1 = 0.6239 | 1225.49 ± 1.8 | 1379.7 ± 2.6
303.15 K, x1 = 0.6951 | 1240.35 ± 1.8 | 1386.4 ± 2.6
303.15 K, x1 = 0.7978 | 1258.87 ± 1.9 | 1395.8 ± 2.7
303.15 K, x1 = 0.8953 | 1274.54 ± 2 | 1403.8 ± 2.8
303.15 K, x1 = 1 | 1288.61 ± 2.1 | 1411.5 ± 2.9
308.15 K, x1 = 0.1036 | 986.423 ± 1.6 | 1267.3 ± 2.3
308.15 K, x1 = 0.2002 | 1060.21 ± 1.6 | 1293.6 ± 2.3
308.15 K, x1 = 0.2868 | 1109.47 ± 1.6 | 1314.3 ± 2.4
308.15 K, x1 = 0.4134 | 1162.51 ± 1.7 | 1338.2 ± 2.5
308.15 K, x1 = 0.5222 | 1196.52 ± 1.7 | 1353.7 ± 2.5
308.15 K, x1 = 0.6239 | 1221.41 ± 1.8 | 1365.4 ± 2.6
308.15 K, x1 = 0.6951 | 1236.28 ± 1.8 | 1372.3 ± 2.6
308.15 K, x1 = 0.7978 | 1255.02 ± 1.9 | 1382.1 ± 2.7
308.15 K, x1 = 0.8953 | 1270.73 ± 2 | 1390.9 ± 2.8
308.15 K, x1 = 1 | 1284.72 ± 2.1 | 1399 ± 2.9
313.15 K, x1 = 0.1036 | 981.583 ± 1.6 | 1247 ± 2.3
313.15 K, x1 = 0.2002 | 1055.56 ± 1.6 | 1275.7 ± 2.3
313.15 K, x1 = 0.2868 | 1105.02 ± 1.6 | 1298 ± 2.4
313.15 K, x1 = 0.4134 | 1158.19 ± 1.7 | 1322.6 ± 2.5
313.15 K, x1 = 0.5222 | 1192.16 ± 1.7 | 1339.2 ± 2.5
313.15 K, x1 = 0.6239 | 1217.23 ± 1.8 | 1351.9 ± 2.6
313.15 K, x1 = 0.6951 | 1232.35 ± 1.8 | 1358.4 ± 2.6
313.15 K, x1 = 0.7978 | 1251.08 ± 1.9 | 1369.7 ± 2.7
313.15 K, x1 = 0.8953 | 1266.85 ± 2 | 1379.6 ± 2.8
313.15 K, x1 = 1 | 1280.82 ± 2.1 | 1386.9 ± 2.9
318.15 K, x1 = 0.1036 | 976.176 ± 1.6 | 1226.8 ± 2.3
318.15 K, x1 = 0.2002 | 1050.65 ± 1.6 | 1257.8 ± 2.3
318.15 K, x1 = 0.2868 | 1100.21 ± 1.6 | 1281.7 ± 2.4
318.15 K, x1 = 0.4134 | 1153.59 ± 1.7 | 1307.3 ± 2.5
318.15 K, x1 = 0.5222 | 1187.55 ± 1.7 | 1324.1 ± 2.5
318.15 K, x1 = 0.6239 | 1212.63 ± 1.8 | 1337.8 ± 2.6
318.15 K, x1 = 0.6951 | 1227.99 ± 1.8 | 1345.7 ± 2.6
318.15 K, x1 = 0.7978 | 1246.87 ± 1.9 | 1357.4 ± 2.7
318.15 K, x1 = 0.8953 | 1262.74 ± 2 | 1367.7 ± 2.8
318.15 K, x1 = 1 | 1276.37 ± 2.1 | 1375 ± 2.9
323.15 K, x1 = 0.1036 | 971.026 ± 1.7 | 1207.5 ± 2.3
323.15 K, x1 = 0.2002 | 1045.83 ± 1.6 | 1240.6 ± 2.3
323.15 K, x1 = 0.2868 | 1095.6 ± 1.6 | 1265.7 ± 2.4
323.15 K, x1 = 0.4134 | 1148.94 ± 1.7 | 1291.2 ± 2.5
323.15 K, x1 = 0.5222 | 1183.5 ± 1.7 | 1309.2 ± 2.5
323.15 K, x1 = 0.6239 | 1208.58 ± 1.8 | 1323.8 ± 2.6
323.15 K, x1 = 0.6951 | 1224.2 ± 1.8 | 1332.8 ± 2.6
323.15 K, x1 = 0.7978 | 1243.02 ± 1.9 | 1345.3 ± 2.7
323.15 K, x1 = 0.8953 | 1258.69 ± 2 | 1355.6 ± 2.8
323.15 K, x1 = 1 | 1272.45 ± 2.1 | 1363.3 ± 2.9
